Test results reported in patent publication US20260206762A1, “PYRIMIDINONE DERIVATIVES AS PESTICIDAL COMPOUNDS” (BASF SE, priority 2022, published 2026).

Tests used:
[1] = tested on: diamond back moth (Plutella xylostella); experiment: Diamond back moth (Plutella xylostella) cabbage leaf disc dip test; format: in vivo; conditions: for mortality at 800 ppm: Plutella xylostella, foliar, 3rd instar larvae, 72 hours after treatment, read-out: mortality in comparison with untreated controls; for Test according to B.4 (Plutella xylostella) @ 10 ppm: comparison data
Experimental: B.4 Diamond Back Moth (Plutella xylostella)
The active compound is dissolved at the desired concentration in a mixture of 1:1 (vol:vol) distilled water: acetone. Surfactant (Kinetic) is added at a rate of 0.01% (vol/vol). The test solution is prepared at the day of use. Cabbage leaf discs (60 mm in diameter) are dipped in test solution and air-dried. Treated leaves are placed in petri dishes lined with moistened filter paper and inoculated with ten 3rd instar larvae. Mortality is recorded 72 hours after treatment. Feeding damage is also recorded using a scale of 0-100%.

[2] = tested on: tobacco budworm (Heliothis virescens); experiment: Tobacco budworm (Heliothis virescens) microtiter diet test, egg and larval mortality; format: in vivo; conditions: 120 h, egg and larval mortality after 5 days, read-out: mortality in comparison with untreated controls
Experimental: B.2 Tobacco Budworm (Heliothis virescens)
(§1) For evaluating control of tobacco budworm (Heliothis virescens) the test unit consisted of 96-well-microtiter plates containing an insect diet and 15-25 H. virescens eggs. The compounds were formulated using a solution containing 75% v/v water and 25% v/v DMSO. Different concentrations of formulated compounds were sprayed onto the insect diet at 10 μl, using a custom-built micro atomizer, at two replications. After application, microtiter plates were incubated at about 28±1° C. and about 80±5% relative humidity for 5 days. Egg and larval mortality was then visually assessed.

[3] = tested on: boll weevil (Anthonomus grandis); experiment: Boll weevil (Anthonomus grandis) microtiter diet test, egg and larval mortality; format: in vivo; conditions: 120 h, egg and larval mortality after 5 days, read-out: mortality in comparison with untreated controls
Experimental: B.1 Boll Weevil (Anthonomus grandis)
as §1, with “boll weevil (Anthonomus grandis)” for “tobacco budworm (Heliothis virescens)”, “5-10 A. grandis” for “15-25 H. virescens”, “5” for “10”, “25±1°” for “28±1°”, “75±5%” for “80±5%”

[4] = tested on: green peach aphid (Myzus persicae); experiment: Green peach aphid (Myzus persicae) systemic artificial diet test; format: in vivo; conditions: 72 h, aphid mortality after 3 days, read-out: mortality in comparison with untreated controls
Text: B.3 Green Peach Aphid (Myzus persicae)
For evaluating control of green peach aphid (Myzus persicae) through systemic means the test unit consisted of 96-well-microtiter plates containing liquid artificial diet under an artificial membrane. The compounds were formulated using a solution containing 75% v/v water and 25% v/v DMSO. Different concentrations of formulated compounds were pipetted into the aphid diet, using a custom built pipetter, at two replications. After application, 5-8 adult aphids were placed on the artificial membrane inside the microtiter plate wells. The aphids were then allowed to suck on the treated aphid diet and incubated at about 23±1° C. and about 50±5% relative humidity for 3 days. Aphid mortality and fecundity was then visually assessed.

[5] = tested on: southern armyworm (Spodoptera eridania), 2nd instar larvae; experiment: whole plant or invertebrate; conditions: in Phaseolus lunatus, foliar, 96 h, read-out: mortality in comparison with untreated controls
Experimental: B.5 Southern Armyworm (Spodoptera eridania), 2nd Instar Larvae
The 10,000 ppm solution was serially diluted in 100% cyclohexanone to make interim solutions. These served as stock solutions for which final dilutions were made by the Tecan in 50% acetone:50% water (v/v) into 10 or 20 ml glass vials. A nonionic surfactant (Kinetic®) was included in the solution at a volume of 0.01% (v/v). The vials were then inserted into an automated electrostatic sprayer equipped with an atomizing nozzle for application to plants/insects. Lima bean plants (variety Sieva) were grown 2 plants to a pot and selected for treatment at the 1st true leaf stage. Test solutions were sprayed onto the foliage by an automated electrostatic plant sprayer equipped with an atomizing spray nozzle. The plants were dried in the sprayer fume hood and then removed from the sprayer. Each pot was placed into perforated plastic bags with a zip closure. Ten to 11 armyworm larvae were placed into the bag and the bags zipped closed. Test plants were maintained in a growth room at about 25° C. and about 20-40% relative humidity for 4 days, avoiding direct exposure to fluorescent light (14:10 light:dark photoperiod) to prevent trapping of heat inside the bags. Mortality and reduced feeding were assessed 4 days after treatment, compared to untreated control plants.

## CCS(=O)(=O)c1cc(-c2ccc(F)cc2)cnc1-c1cn2c(=O)n(C3CC3)c(Cl)cc2n1 [I.1, 7-chloro-6-cyclopropyl-2-[3-ethylsulfonyl-5-(4-fluorophenyl)-2-pyridyl]imidazo[1,2-c]pyrimidin-5-one]
[1]
  mortality at 800 ppm: > 75%
[2]
  mortality at 800 ppm: > 75%
[3]
  mortality at 800 ppm: > 75%
[4]
  mortality at 800 ppm: > 75%
[5]
  mortality at 300 ppm: > 75%

## CCS(=O)(=O)c1cc(-c2ccc(F)cc2)cnc1-c1cn2c(=O)n(C3CC3)c(Br)cc2n1 [I.4, 7-bromo-6-cyclopropyl-2-[3-ethylsulfonyl-5-(4-fluorophenyl)-2-pyridyl]imidazo[1,2-c]pyrimidin-5-one]
[1]
  mortality at 800 ppm: > 75%
[2]
  mortality at 800 ppm: > 75%
[3]
  mortality at 800 ppm: > 75%
[4]
  mortality at 800 ppm: > 75%
[5]
  mortality at 300 ppm: > 75%

## CCS(=O)(=O)c1cc(C(C)(C)C#N)cnc1-c1cn2c(=O)n(C3CC3)c(Cl)cc2n1 [I.3]
[1]
  Test according to B.4 (Plutella xylostella) @ 10 ppm: 100%
  mortality at 800 ppm: > 75%
[3]
  mortality at 800 ppm: > 75%
[4]
  mortality at 800 ppm: > 75%
[5]
  mortality at 300 ppm: > 75%

## CCS(=O)(=O)c1cc(C(C)(C)C#N)cnc1-c1cn2c(=O)n(C3CC3)c(C(F)(F)F)cc2n1 [Compound C.4, reference compound]
[1]
  Test according to B.4 (Plutella xylostella) @ 10 ppm: 25%

## CCS(=O)(=O)c1cc(-c2ccc(F)cc2)c(C)nc1-c1cn2c(=O)n(C3CC3)c(Cl)cc2n1 [I.5, 7-chloro-6-cyclopropyl-2-[3-ethylsulfonyl-5-(4-fluorophenyl)-6-methyl-2-pyridyl]imidazo[1,2-c]pyrimidin-5-one]
[1]
  mortality at 800 ppm: > 75%
[2]
  mortality at 800 ppm: > 75%
[3]
  mortality at 800 ppm: > 75%
[4]
  mortality at 800 ppm: > 75%
[5]
  mortality at 300 ppm: > 75%
